Results taken from article doi:10.1101/2023.10.14.562361v1 (biorxiv, 2023).

Experiments:
Smurf1C2 = experiment: UbFluor fluorescence polarization assay; type: biochemical, Homo sapiens; conditions: 0.5 µM enzyme, 2 µM UbFluor, pH 7.4, 0.01% Tween20
Smurf1 HECT [1] = target: T1, Smurf1 HECT (Homo sapiens, UniProt Q9HCE7); experiment: UbFluor fluorescence polarization assay; type: biochemical
Smurf1 HECT [2] = target: T1, Smurf1 HECT; experiment: biolayer interferometry; type: binding
Smurf1 FL = Smurf1 FL (Homo sapiens, UniProt Q9HCE7); experiment: UbFluor fluorescence polarization assay; type: biochemical
Chain of Smurf1 FL (Q9HCE7 whole entry): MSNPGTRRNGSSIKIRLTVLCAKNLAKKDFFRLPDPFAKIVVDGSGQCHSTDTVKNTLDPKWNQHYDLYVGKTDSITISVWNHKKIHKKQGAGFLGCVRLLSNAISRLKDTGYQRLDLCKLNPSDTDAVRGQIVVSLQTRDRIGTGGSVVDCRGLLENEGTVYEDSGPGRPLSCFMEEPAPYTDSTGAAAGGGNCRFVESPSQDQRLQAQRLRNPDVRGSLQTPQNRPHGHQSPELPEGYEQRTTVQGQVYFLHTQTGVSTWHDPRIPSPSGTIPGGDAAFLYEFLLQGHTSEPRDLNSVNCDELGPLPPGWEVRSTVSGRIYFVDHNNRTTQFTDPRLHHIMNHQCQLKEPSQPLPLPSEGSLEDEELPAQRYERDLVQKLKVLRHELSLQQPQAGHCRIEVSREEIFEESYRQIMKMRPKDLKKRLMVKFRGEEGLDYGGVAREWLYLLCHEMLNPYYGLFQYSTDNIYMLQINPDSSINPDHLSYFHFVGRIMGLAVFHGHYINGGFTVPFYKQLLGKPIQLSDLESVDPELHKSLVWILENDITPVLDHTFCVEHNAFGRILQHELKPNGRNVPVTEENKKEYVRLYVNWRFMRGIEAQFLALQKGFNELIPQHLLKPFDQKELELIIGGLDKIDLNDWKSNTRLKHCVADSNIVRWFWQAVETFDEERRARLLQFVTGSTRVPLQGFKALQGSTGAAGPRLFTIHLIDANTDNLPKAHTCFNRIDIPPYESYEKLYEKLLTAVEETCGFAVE

T1 sequence (Q9HCE7 341-757): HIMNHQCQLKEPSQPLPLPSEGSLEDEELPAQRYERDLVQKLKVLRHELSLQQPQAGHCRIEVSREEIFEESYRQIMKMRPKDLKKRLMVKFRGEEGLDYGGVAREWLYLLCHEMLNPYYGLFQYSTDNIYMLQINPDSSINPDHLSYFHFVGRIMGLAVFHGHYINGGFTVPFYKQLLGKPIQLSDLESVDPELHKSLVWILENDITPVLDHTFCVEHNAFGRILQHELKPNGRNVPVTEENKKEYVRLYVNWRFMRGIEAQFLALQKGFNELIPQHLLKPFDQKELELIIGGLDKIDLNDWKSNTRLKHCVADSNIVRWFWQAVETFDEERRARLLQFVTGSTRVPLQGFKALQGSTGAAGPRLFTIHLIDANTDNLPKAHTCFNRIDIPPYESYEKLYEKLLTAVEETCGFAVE

IC50 (Smurf1C2) [nM] | IC50 (Smurf1 HECT [1]) [nM] | Kd (Smurf1 HECT [2]) [nM] | IC50 (Smurf1 FL) [nM] | Compound
140 | 450 | 25800 ± 2200 | 230 | Cc1c(NC(=O)c2noc3c2CCSc2cc(OC(F)(F)F)ccc2-3)c(=O)n(C2CCCCC2)n1C [compound 1]
3100 | – | 54500 ± 2000 | – | Cc1c(C(=O)Nc2c(C)n(C)n(C3CCCCC3)c2=O)nnn1-c1ccc(OC(F)(F)F)cc1Cl [compound 2]
